# Marks after values point to notes of the source that are not given here.
# What was measured:
# [1] = system: NCI-H460 human lung carcinoma; assay: Tumor growth evaluation, NCI-H460 s.c. xenograft; type: in vivo, CD-1 nude mice
# Description: NCI-H460 human lung carcinoma from in vitro cell cultures were injected s.c. (3×10^6 cells/100 μl/mouse) into the right flank of CD-1 nude mice. Four days after tumor implant mice started to be treated with ST2493 at the dose of 50 mg/kg intraperitoneally according to the following schedule: qdx5/w/3wks. CA-4P (combretastatin A-4 P) at the same dose was used as positive control.
# All animals were weighed during the whole treatment period, in order to adjust the volume of drug administration and to record the percent of body weight loss due in the course of treatment.
# In a following experiment with the same animal model ST2493 (prodrug of ST2303) was administered intravenously at the doses of 25 and 50 mg/kg according to a q2dx6 schedule.
# Tumor growth was assessed by twice a week measurements of the shortest (width) and the longest (length) diameters of each tumor by a Vernier caliper and the antitumor activity was evaluated in terms of percent inhibition of tumor growth. Tumor volume (or tumor weight*) was calculated according to the following formula using caliper measurements: tumor volume or TV (mm^3)=[length (mm)×width (mm)^2]/2.
# Tumor volume inhibition percent (% TVI) was calculated according to the equation: 100−[(mean tumor volume of treated group/mean tumor volume of control group)×100]. A P value≦0.05 was considered statistically significant.
# [2] = system: bovine microvascular endothelial cells (BMEC); assay: Cytotoxicity assay (sulforhodamine B), BMEC; type: cell-based; details: Bos taurus, Endothelial cell, 24 h exposure, then 48 h drug-free
# Description: (§1) Primary cultures of bovine microvascular endothelial cells (BMEC) were obtained from bovine adrenal glands as described by Folkman (Folkman J., Haudenschild C. C., Zetter B. R. Long-term culture of capillary endothelial cells. Proc. Natl. Acad. Sci. USA, 1979 October; 76(10): 5217-21). BMEC were maintained in DMEM supplemented with 20% fetal calf serum (FCS), 50 units/ml heparin (Sigma, St. Louis, Mo.), 50 μg/ml bovine brain extract, 100 units/ml gentamycin. HUVEC (Human umbilical vein endothelial cells) were obtained from BioWhittaker (Walkersville, Md.) and grown in EGM-2 (BioWhittaker). EA-hy 926 cell line, a HUVEC-adenocarcinoma immortalized cell hybrid, was obtained from the Dipartimento di Scienze Biomediche e Oncologia Umana (Universita di Bari, Italy), and cultured in DMEM supplemented with 10% serum and 50 μg/ml gentamycin sulfate.
# (§2) To test the effects of ST2303 on growth, cells were seeded in 96-well tissue culture plates (Corning) at approximately 10% confluence and were allowed to attach and recover for at least 24 h. Varying concentrations of the compound were then added to each well. […] The number of surviving cells was then determined by staining with sulforhodamine B as described by Skehan et al. (1990). ST2303 inhibitory concentration 50 (IC50)±SD on different cell lines, evaluated by “ALLFIT” computer program, are shown in Table 1.
# [3] = system: HUVEC (Human umbilical vein endothelial cells); assay: Cytotoxicity assay (sulforhodamine B), HUVEC; type: cell-based; details: 24 h exposure, then 48 h drug-free
# Description: as §1, §2
# EA-hy 926 cell line = assay: Cytotoxicity assay (sulforhodamine B), EA-hy 926; type: cell-based; details: Homo sapiens, EAHY.926, 24 h exposure, then 48 h drug-free
# Description: as §1, §2
# [4] = system: NCIH460 human lung carcinoma; assay: Cytotoxicity assay (sulforhodamine B), NCI-H460; type: cell-based; details: 24 h exposure, then 48 h drug-free
# Description: (§3) The following cell lines were purchased from ATCC and cultured according to manufacturer's instructions: NCIH460 human lung carcinoma, MeWo human melanoma, MES-SA human uterine sarcoma and HCT116 human colorectal carcinoma. HT-29 human colon adenocarcinoma cells and A2780 human ovarian carcinoma, obtained from Istituto Nazionale Tumori (Milan, Italy), were grown in RPMI 1640 (GIBCO) containing 10% fetal bovine serum (GIBCO) and 50 μg/ml gentamycin sulfate.
# (§4) To test the effects of ST2303 on growth, cells were seeded in 96-well tissue culture plates (Corning) at approximately 10% confluence and were allowed to attach and recover for at least 24 h. Varying concentrations of the compound were then added to each well. The plates were incubated for 24 h and then washed before incubating them for additional 48 h. The number of surviving cells was then determined by staining with sulforhodamine B as described by Skehan et al. (1990). ST2303 inhibitory concentration 50 (IC50)±SD on different cell lines, evaluated by “ALLFIT” computer program, are shown in Table 1.
# [5] = system: HT-29 human colon adenocarcinoma cells; assay: Cytotoxicity assay (sulforhodamine B), HT-29; type: cell-based; details: HT29, 24 h exposure, then 48 h drug-free
# Description: as §3, §4
# MeWo human melanoma = assay: Cytotoxicity assay (sulforhodamine B), MeWo; type: cell-based; details: 24 h exposure, then 48 h drug-free
# Description: as §3, §4
# [6] = system: A2780 human ovarian carcinoma; assay: Cytotoxicity assay (sulforhodamine B), A2780; type: cell-based; details: 24 h exposure, then 48 h drug-free
# Description: as §3, §4
# [7] = system: MES-SA human uterine sarcoma; assay: Cytotoxicity assay (sulforhodamine B), MES-SA; type: cell-based; details: 24 h exposure, then 48 h drug-free
# Description: as §3, §4
# [8] = system: HCT116 human colorectal carcinoma; assay: Cytotoxicity assay (sulforhodamine B), HCT116; type: cell-based; details: HCT 116, 24 h exposure, then 48 h drug-free
# Description: as §3, §4
# tubulin = assay: Tubulin polymerisation inhibition test (CytoDINAMIX Screen, turbidity at 340 nm); type: biochemical; details: tubulin 3 mg/ml, 37° C.; mean of 3 independent determinations; read-out: IC50 ± SE, tubulin polymerisation
# Description: The tubulin polymerisation test was performed by CytoDINAMIX Screen™. Turbidity from tubulin polimerisation was measured with a Victor2 from Wallac. HTS-tubulin was diluted to 3 mg/ml in buffer PEM [100 mM PIPES (pH 6.9), 1 mM EGTA and 1 mM MgCl2] containing 1 mM GTP (GPEM) plus 5% glycerol, and kept on ice. Aliquots of this solution was then placed at 37° C. in presence of taxol (3 μM) or colcemid (3 μM) or combretastatin (ST1986) or compounds to examinate, and absorbance was measured at 340 nm. The IC50 values were determined by non-linear regression analysis using “Prism GraphPad” software.
# The value indicated in Table 3 is the mean of 3 independent determinations.
# [9] = i.p. 50 mg/kg, qdx5/w/3wks, day 11 after cell injection
# [10] = i.p. 50 mg/kg, qdx5/w/3wks, day 28 after cell injection
structure (smiles),measurement,setting,value
"COc1ccc(/C=C\c2cc(OC)c(OC)c(OC)c2)cc1OP(=O)(O)O [CA-4P, combretastatin A-4 P, reference compound]",% BWL (body weight loss),"[1]; i.p. 50 mg/kg, qdx5/w/3wks",3%
same,mortality,"[1]; i.p. 50 mg/kg, qdx5/w/3wks",0/8
same,% TVI (tumor volume inhibition),[1]; [9],47** %
same,% TVI (tumor volume inhibition),[1]; [10],61*** %
"COc1ccc(/C(F)=C(/F)c2cc(OC)c(OC)c(OC)c2)cc1O [ST2303, (Z)-1,2-difluoro-1-(3,4,5 trimethoxyphenyl)-2-(3-hydroxy-4-methoxyphenyl)ethene]",IC50,[2],1 ± 0.5 nM
same,IC50,[3],1 ± 0.3 nM
same,IC50,EA-hy 926 cell line,5 ± 0.5 nM
same,IC50,[4],3 ± 0.005 nM
same,IC50,[5],> 200 nM
same,IC50,MeWo human melanoma,3.6 ± 0.0003 nM
same,IC50,[6],3 ± 0.001 nM
same,IC50,[7],< 1 nM
same,IC50,[8],2.2 ± 0.05 nM
same,IC50,tubulin,7700 ± 120 nM
"COc1ccc(/C(F)=C(/F)c2cc(OC)c(OC)c(OC)c2)cc1OP(=O)([O-])[O-].[Na+].[Na+] [ST2493, (Z)-1,2-difluoro-1-(3,4,5-trimethoxyphenyl)-2-(3-hydroxy-4-methoxyphenyl)ethene o-disodium phosphate]",TVI compared to vehicle (in words),[1]; both intraperitoneal and intravenous administration,significant TVI
same,% BWL (body weight loss),"[1]; i.p. 50 mg/kg, qdx5/w/3wks",8%
same,mortality,"[1]; i.p. 50 mg/kg, qdx5/w/3wks",0/8
same,% TVI (tumor volume inhibition),[1]; [9],68** %
same,% TVI (tumor volume inhibition),[1]; [10],73*** %
same,% BWL (body weight loss),"[1]; i.v. 25 mg/kg, q2dx6",8%
same,mortality,"[1]; i.v. 25 mg/kg, q2dx6",0/8
same,% TVI (tumor volume inhibition),"[1]; i.v. 25 mg/kg, q2dx6, day 11 after cell injection",63** %
same,% TVI (tumor volume inhibition),"[1]; i.v. 25 mg/kg, q2dx6, day 28 after cell injection",64*** %
same,% BWL (body weight loss),"[1]; i.v. 50 mg/kg, q2dx6",8%
same,mortality,"[1]; i.v. 50 mg/kg, q2dx6",0/8
same,% TVI (tumor volume inhibition),"[1]; i.v. 50 mg/kg, q2dx6, day 11 after cell injection",73** %
same,% TVI (tumor volume inhibition),"[1]; i.v. 50 mg/kg, q2dx6, day 28 after cell injection",73** %
same,TVI compared with the same dose of CA-4P (in words),"[1]; intraperitoneal, 50 mg/kg, p=0.0095 at day 11, p=0.0180 at day 28, Mann Whitney's test",significant difference

# Reference: patent US7572778B2, “Fluorocombretastatin and derivatives thereof” (Sigma-Tau Industrie Farmaceutiche Riunite S.p.A., priority 2003, dated 2009)
